The record followed here is patent US6355464B1, “M. tuberculosis RNA polymerase alpha subunit” (Anadys Pharmaceuticals, Inc., priority 1996, dated 2002).

The target of the assay is M. tuberculosis RNA polymerase (Mycobacterium tuberculosis, UniProt P9WGY7+P9WGY9+P9WGZ1). Description: In vitro (cell-free) high-throughput transcription screen with reconstituted RNA polymerase and T101 promoter template. The format is biochemical. Particulars: rifampicin at 30 nM; control compound; TCA-precipitated [α-32P]-UTP-labelled RNA, 30 min at 25° C. How it is done:
High-throughput screens for anti-tuberculosis agents may be performed using either an in vitro or in vivo format. In either case, the ability of test compounds to inhibit M. tuberculosis RNA polymerase-driven transcription of M. tuberculosis promoters is tested. Typically, a strong promoter such as T101 is used for the test reactions. The sequence of the T101 promoter is: identified by SEQ. ID. NO. 15 and read as follows.
The following procedure is used for cell-free high-throughput screening. A Tomtec Quadra 96-well pipetting station is used to add the reaction components to polypropylene 96-well dishes. 5 μl aliquots of test compounds dissolved in DMSO (or DMSO alone as a control) are added to wells. This is followed by 20 μl of the RNA polymerase mixture, which consists of: 10 mM DTT, 200 mM KCl, 10 mM Mg^+2, 1.5 μM bovine serum albumin, and 0.25 μg reconstituted RNA polymerase. […]
After incubation for 30 min at 25° C., the reaction is stopped by addition of 150 μl 10% trichloroacetic acid (TCA). […] The wells of the microtiter plate and the filter are washed twice with 5% TCA and bound radioactivity is determined usinjg a Wallac microbeta 1450 scintillation counter. Inhibitory activity due to the test compound is calculated according to the formula: [formula] […]

Chain of M. tuberculosis RNA polymerase (P9WGY7 whole entry, looked up): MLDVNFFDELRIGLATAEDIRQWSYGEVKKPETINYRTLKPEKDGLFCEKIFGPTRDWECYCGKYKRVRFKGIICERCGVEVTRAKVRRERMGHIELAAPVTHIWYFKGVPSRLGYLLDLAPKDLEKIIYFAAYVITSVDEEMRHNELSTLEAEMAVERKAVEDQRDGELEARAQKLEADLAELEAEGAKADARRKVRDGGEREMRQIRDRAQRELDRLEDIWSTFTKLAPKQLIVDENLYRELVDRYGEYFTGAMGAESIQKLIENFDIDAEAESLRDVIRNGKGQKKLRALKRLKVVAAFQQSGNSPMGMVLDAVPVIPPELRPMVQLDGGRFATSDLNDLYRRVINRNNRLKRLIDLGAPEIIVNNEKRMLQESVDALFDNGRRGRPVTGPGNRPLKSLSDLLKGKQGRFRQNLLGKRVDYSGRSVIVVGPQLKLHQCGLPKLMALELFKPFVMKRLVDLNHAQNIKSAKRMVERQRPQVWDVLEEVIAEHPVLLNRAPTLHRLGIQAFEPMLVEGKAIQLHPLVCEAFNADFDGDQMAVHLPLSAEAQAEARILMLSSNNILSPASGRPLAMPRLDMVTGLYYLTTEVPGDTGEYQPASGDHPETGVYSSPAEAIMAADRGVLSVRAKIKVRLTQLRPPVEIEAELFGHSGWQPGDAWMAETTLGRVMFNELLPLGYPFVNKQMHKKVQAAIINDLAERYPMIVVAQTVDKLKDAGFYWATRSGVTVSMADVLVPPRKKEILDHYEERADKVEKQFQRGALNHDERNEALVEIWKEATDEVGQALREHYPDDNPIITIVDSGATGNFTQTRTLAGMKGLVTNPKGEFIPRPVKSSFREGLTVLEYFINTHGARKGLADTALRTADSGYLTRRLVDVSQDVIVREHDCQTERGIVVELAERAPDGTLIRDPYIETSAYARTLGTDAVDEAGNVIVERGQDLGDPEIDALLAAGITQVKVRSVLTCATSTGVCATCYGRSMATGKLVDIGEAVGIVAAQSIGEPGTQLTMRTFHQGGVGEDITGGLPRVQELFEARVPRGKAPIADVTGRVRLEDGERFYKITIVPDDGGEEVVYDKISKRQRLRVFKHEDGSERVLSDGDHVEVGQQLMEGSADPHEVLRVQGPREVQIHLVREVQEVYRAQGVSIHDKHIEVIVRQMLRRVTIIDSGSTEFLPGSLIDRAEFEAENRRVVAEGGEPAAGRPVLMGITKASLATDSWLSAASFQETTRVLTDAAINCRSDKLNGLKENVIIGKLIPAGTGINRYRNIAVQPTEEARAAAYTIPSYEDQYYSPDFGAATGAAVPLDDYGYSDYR
Chain of M. tuberculosis RNA polymerase (P9WGY9 whole entry, looked up): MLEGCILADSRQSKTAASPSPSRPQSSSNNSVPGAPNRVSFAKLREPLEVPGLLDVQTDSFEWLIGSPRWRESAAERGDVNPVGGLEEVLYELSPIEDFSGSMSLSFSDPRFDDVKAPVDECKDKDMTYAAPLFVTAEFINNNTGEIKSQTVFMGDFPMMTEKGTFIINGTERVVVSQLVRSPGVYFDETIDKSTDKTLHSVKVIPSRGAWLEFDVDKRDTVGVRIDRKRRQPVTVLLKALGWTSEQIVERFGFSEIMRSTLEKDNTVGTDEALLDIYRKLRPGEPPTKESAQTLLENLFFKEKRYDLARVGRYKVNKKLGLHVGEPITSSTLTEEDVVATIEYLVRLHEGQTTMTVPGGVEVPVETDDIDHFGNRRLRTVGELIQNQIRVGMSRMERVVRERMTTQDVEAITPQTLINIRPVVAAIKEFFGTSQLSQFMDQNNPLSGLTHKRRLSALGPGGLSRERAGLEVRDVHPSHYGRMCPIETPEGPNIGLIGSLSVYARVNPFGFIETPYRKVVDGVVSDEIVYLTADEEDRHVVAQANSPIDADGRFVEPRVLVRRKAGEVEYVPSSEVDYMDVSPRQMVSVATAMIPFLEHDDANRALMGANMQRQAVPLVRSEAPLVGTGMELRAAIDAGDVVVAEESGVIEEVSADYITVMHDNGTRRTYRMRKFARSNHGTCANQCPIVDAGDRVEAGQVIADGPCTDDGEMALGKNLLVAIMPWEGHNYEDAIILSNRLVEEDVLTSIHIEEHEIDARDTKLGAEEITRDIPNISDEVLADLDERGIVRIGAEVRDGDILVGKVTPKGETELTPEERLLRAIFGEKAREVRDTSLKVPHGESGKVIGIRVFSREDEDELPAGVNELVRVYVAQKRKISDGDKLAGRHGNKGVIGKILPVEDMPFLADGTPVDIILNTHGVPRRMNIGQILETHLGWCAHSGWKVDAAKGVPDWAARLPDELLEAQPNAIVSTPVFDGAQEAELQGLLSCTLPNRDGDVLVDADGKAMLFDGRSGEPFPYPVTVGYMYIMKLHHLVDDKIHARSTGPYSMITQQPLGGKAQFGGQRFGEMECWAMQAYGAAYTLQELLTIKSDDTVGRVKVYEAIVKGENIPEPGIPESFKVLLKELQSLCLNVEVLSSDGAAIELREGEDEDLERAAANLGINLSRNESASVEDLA
Chain of M. tuberculosis RNA polymerase (P9WGZ1 whole entry, looked up): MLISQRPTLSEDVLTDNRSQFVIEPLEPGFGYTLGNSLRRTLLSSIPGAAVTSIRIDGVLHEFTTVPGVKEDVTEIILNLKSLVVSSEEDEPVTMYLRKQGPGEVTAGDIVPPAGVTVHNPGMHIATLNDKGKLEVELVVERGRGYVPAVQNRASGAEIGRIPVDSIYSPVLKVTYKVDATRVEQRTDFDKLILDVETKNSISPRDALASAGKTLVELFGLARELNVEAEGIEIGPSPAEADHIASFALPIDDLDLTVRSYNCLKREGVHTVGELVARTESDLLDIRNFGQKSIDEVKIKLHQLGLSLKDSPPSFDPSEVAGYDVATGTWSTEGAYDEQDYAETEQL

With `CO[C@H]1/C=C/O[C@@]2(C)Oc3c(C)c(O)c4c(O)c(c(/C=N/N5CCN(C)CC5)c(O)c4c3C2=O)NC(=O)/C(C)=C\C=C\[C@H](C)[C@H](O)[C@@H](C)[C@@H](O)[C@@H](C)[C@H](OC(C)=O)[C@@H]1C` [rifampicin], the inhibition of transcription is 50-75%.
